Paper PMC10455244, “Alpha-Mangostin: A Potent Inhibitor of TRPV3 and Pro-Inflammatory Cytokine Secretion in Keratinocytes” (International Journal of Molecular Sciences, 2023)

Tests used:
[1] = target: T1, TRPA1 (Homo sapiens, UniProt O75762); test: Whole-cell patch-clamp, AITC-activated TRPA1 current in transfected HEK 293T cells; format: cell-based; conditions: 100 µM AITC
T1 construct: host or cells: HEK 293T (transient transfection)
Procedure: Next, we examined the impact of alpha-mangostin on other TRP channels. TRPV4- and TRPA1 trasfected HEK 293T were activated using 300 nM GSK-1016790A (GSK101) and 100 µM allyl isothiocyanate (AITC), respectively. […] The dose–response curves were obtained by applying various concentrations of alpha-mangostin (Figure 2C).
Figure 2 Alpha-mangostin (α-MG) inhibited the TRPV3 current more effectively than other TRP channels. (A) Representative I–V curves from whole-cell recordings illustrate the inhibitory effect of 0.3 µM alpha-mangostin on TRPV4 and TRPA1 channels (GSK101: GSK-1016790A, a TRPV4 agonist; RR: ruthenium red, a TRP inhibitor; AITC: allyl isothiocyanate, a TRPA1 agonist; A967: A-967079, a TRPA1 inhibitor). Currents were elicited with ramp pulses from −100 to +100 mV over 1 s, which were repetitively applied every 20 s; the holding potential was set at 0 mV. (B) Summary of the inhibition percentage after 0.3 µM alpha-mangostin treatment at −100 mV. […]
(§1) In the whole-cell configuration, voltage ramps from −100 to +100 mV over 1 s were applied every 20 s and the holding potential was set at 0 mV. Sampling at 10 kHz and low-pass filtering at 5 kHz (w-c) were applied for all recorded currents. Recorded data were analyzed using Clampfit ver. […]

[2] = target: T2, TRPV3 (G573S) (Homo sapiens, UniProt Q8NET8, G573S); test: Whole-cell patch-clamp, spontaneous current of TRPV3 G573S mutant in HEK 293T cells; format: cell-based; conditions: −100 mV, read-out: IC50, inhibition of spontaneous current of TRPV3 G573S mutant
T2 construct: host or cells: HEK 293T (transient transfection, pEGFP-N1 co-transfected as a marker)
T2 sequence (Q8NET8 1-790 G573S): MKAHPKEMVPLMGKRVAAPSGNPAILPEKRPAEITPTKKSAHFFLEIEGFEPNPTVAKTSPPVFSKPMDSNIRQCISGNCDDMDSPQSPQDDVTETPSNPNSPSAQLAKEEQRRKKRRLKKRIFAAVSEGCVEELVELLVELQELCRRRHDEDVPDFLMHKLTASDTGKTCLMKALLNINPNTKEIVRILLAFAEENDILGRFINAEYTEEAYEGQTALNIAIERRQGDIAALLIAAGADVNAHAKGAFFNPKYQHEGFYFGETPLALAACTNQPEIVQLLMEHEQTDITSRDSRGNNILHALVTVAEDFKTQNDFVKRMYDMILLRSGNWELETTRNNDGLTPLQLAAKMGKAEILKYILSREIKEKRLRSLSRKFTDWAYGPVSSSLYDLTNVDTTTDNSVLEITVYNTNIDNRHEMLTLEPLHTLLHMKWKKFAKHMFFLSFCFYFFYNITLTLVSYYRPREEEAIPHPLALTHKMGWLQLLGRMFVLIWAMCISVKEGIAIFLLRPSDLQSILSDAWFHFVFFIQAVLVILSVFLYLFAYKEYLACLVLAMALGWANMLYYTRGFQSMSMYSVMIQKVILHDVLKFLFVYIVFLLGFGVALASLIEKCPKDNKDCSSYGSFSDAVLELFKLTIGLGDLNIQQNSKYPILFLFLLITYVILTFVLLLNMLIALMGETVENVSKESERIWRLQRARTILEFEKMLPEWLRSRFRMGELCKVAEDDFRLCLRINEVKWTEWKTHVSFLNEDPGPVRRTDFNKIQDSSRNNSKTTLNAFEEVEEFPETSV
Procedure: For electrophysiology recording and calcium measurement, 10 µM 74a (a TRPV3 inhibitor) was added about 6 h after transfection to inhibit channel activities and prevent cell death. First, the electrophysiology activities of the mutations were recorded using a whole-cell patch-clamp. Our data presented spontaneous TRPV3 currents when −100 mV to 100 mV ramp pulses were applied, which dramatically declined with the addition of 1 µM alpha-mangostin (Figure 4A).
Figure 4 Alpha-mangostin inhibited the activity of hyperactive TRPV3 mutant channels and rescued mutation-induced cell death. (A) Alpha-mangostin inhibited the channel current in representative TRPV3 (G573S)- and TRPV3 (G573C)-expressing HEK 293T cells. […] Currents were normalized to the response at −100 mV before adding alpha-mangostin. (C) Alpha-mangostin inhibited TRPV3-mediated intracellular calcium increase in TRPV3 (G573S)-expressing HEK 293T cells. […] The bar graph on the right summarizes the change in the intracellular calcium rise inhibited by alpha-mangostin. […]
as §1

T1 sequence (O75762 whole entry, species assumed): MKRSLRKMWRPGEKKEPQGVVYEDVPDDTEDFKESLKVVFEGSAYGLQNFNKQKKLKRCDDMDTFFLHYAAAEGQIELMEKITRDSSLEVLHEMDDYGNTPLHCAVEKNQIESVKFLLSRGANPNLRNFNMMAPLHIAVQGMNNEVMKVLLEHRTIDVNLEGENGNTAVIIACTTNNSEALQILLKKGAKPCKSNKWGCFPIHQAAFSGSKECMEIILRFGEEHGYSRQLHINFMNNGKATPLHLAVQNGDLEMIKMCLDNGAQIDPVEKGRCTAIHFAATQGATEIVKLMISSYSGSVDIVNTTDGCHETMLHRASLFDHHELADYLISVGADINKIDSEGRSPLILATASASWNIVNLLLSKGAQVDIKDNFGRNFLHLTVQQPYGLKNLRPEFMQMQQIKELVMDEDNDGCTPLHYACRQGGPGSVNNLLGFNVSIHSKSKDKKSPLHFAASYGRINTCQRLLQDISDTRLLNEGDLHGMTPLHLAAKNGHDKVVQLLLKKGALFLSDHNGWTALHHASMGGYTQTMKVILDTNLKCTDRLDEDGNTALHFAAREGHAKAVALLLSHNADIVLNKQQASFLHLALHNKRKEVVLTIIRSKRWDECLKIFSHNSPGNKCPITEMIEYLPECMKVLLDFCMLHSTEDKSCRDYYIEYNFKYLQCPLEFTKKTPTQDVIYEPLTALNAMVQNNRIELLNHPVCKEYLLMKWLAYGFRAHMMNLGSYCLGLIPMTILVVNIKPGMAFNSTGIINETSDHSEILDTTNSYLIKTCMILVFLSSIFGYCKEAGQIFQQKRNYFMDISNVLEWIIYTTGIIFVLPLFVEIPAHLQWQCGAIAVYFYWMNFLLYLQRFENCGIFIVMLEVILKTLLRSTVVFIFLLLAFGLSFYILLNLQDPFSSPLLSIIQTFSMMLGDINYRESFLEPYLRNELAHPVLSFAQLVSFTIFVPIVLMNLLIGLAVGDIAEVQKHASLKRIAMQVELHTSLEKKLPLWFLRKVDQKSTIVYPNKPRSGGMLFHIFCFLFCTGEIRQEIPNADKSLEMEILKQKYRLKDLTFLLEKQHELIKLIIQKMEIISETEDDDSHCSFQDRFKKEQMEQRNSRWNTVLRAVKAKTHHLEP

In the case of COc1c(O)cc2oc3cc(O)c(CC=C(C)C)c(O)c3c(=O)c2c1CC=C(C)C [Alpha-mangostin], the inhibition at 0.3 µM ([1]; HEK-293T, 0.3 µM, −100 mV, read-out: Inhibition percentage of TRPA1 current) is reported as 24.8%, the IC50 ([1]; transfected HEK 293T, read-out: IC50, inhibition of TRPA1 current) is reported as 5.09 ± 2.21 µM and the IC50 [2] is reported as 2.04 ± 0.64 µM.
